The results in this text go back to patent US11479536B1 (King Abdulaziz University, priority 2022, dated 2022).

A word on the IC50: it is the concentration that inhibits the measured activity by half. What is called fraction unbound is free concentration divided by total concentration.

Data set [1] has as its system HL60 cell line. In words: Cell viability assay of HL60 cell line (CellTiter-Blue). The class given is cell-based, human. Particulars: HL60, 48 h incubation; read-out: IC50 against leukemia cell lines HL60. The method, then: HL60, K562, MV4-11 and NB4 were purchased from CLS Cell Line Service GmbH (Eppelheim, Germany). All cell lines were cultured in RPMI-1640 medium supplemented with 10% fetal bovine serum (FBS) (Thermo Fisher Scientific) and 0.1% ciprofloxacin (2.5 mg/ml; Cipla Limited; Mumbai, India), and were maintained at 37° C. in the presence of 21% O2 and 5% CO2.
Cell viability was determined using the CellTiter®-Blue Cell Viability Assay kit (Promega, Madison, Wis., USA). Approximately 10^4 cells were counted and plated in a 96-well plate in the presence of test compounds ranging from 0.01 to 10 or 20 μM in triplicate and were incubated for 48 h at 37° C. in a humidified incubator. After the incubation period was complete, 20 μL of CellTiter®-Blue Cell Viability Assay reagent was added to each well and incubated for additional 2 h for the development of florescence. Florescence was measured at Ex/Em 540/590 on SpectraMax® i3 Multi-Mode microplate reader (Molecular Devices, LLC; San Jose, Calif., USA) and plotted against drug concentration to determine the IC50 of the test compounds. The IC50 was obtained by non-linear regression model using GraphPad Prism 6.07 (GraphPad Software, Inc, USA).
On the technique in general: Resazurin is reduced to fluorescent resorufin, in cell work by metabolically active cells.

The nature of data set [2]: Binding to mouse plasma proteins (equilibrium dialysis). The settings on record: CD-1, pH 7.4, 37° C., read-out: free, unbound fraction in mouse plasma. Format: in vitro ADME. As for the experimental part:
The equilibrium dialysis method for determining plasma protein binding was performed as previously described using 96-well dialyzer plates with molecular weight cutoff of 5K (Harvard Apparatus, Holliston, Mass.) and a dual-plate rotator set to maximum speed (Harvard Apparatus, Holliston, Mass.) located in a 37° C. incubator with a 10% CO2-atmospheric environment. Assays were run in triplicate. The test compounds were added to CD-1 mouse plasma (Innovative Research, Novi, Mich., sodium heparin added as anticoagulant; pH adjusted to 7.4 with 2N HCl on day of use) in DMSO (final DMSO concentration 0.4%) to give 10 μM final concentration. Drug/plasma mixture and buffer (Dulbecco's phosphate-buffered saline 1× without calcium and magnesium, Mediatech, Inc., Herndon, Va.) were placed in their respective sides, wells were capped, and the plate was placed in the rotator and allowed to dialyze for 22 h. Following dialysis, aliquots of buffer and plasma mixture were removed and mixed with aliquots of the opposite matrix in 96-well deep plates. Concentrations of analytes from each side of the dialysis plate were determined by LC/MS/MS on a Waters Xevo TQ instrument as described above using positive electrospray ionization. […] The fraction unbound was calculated by dividing the drug concentration in the buffer side of the dialysis plate by the drug concentration in the plasma side.
(In general: Equilibrium dialysis compares concentrations on both sides of a semipermeable membrane.)

A short description of data set [3]: Stability in mouse liver microsomes. The class given is in vitro ADME. As for the experimental part:
Both mouse and human liver microsomes were obtained from Merck KGaA, (Darmstadt, Germany), Cat. No. M9441 (Mouse liver microsomes) and M0317 (Human liver microsomes). Assays were conducted in triplicate in 96-deep well polypropylene plates. […] At five time points, reaction mixture aliquots were transferred to 96-shallow well stop plates on ice containing acetonitrile with 0.1 μM propafenone. […] Standard curves for test compound were generated using 5 concentrations in triplicate that were processed as above but with zero incubation time. Stop plates were centrifuged at 2000 g for 10 min and then supernatant aliquots were transferred to a Waters Aquity® UPLC 700 μL 96-well sample plate with cap mat (Waters, Milford, Mass.). The amount of compound remaining in the supernatant was quantified by LC/MS/MS using a Waters Xevo TQ MS (electrospray positive mode) coupled to a Waters Aquity® UPLC (BEH column, C18). Propafenone was used as the internal standard. GraphPad® Prism v 5.04 was used for nonlinear fitting of time course data to generate t1/2 values.

Data set [4] in a line: Stability in mouse plasma. Format: in vitro ADME. Particulars: 37° C., duration of the assay (5 h). The method, then: The assay is conducted at 37° C. in triplicate. Test compounds or procaine (positive control) are tested at a final concentration of 1 μM in either 2.5% DMSO/CD-1 mouse plasma (Innovative Research, Novi, Mich.; sodium heparin added as anticoagulant; pH adjusted to 7.4 with 2N HCl on day of use) or 2.5% DMSO/PBS (pH 7.4: 136.9 mM NaCl, 2.68 mM KCl, 8.1 mM Na2HPO4, 1.47 mM KH2PO4, 0.9 mM CaCl2, 0.49 mM MgCl2). At seven time points, reaction mixture aliquots were transferred to 96-shallow well stop plates on ice containing acetonitrile with 0.1 μM propafenone. Samples were analyzed by LC/MS/MS on a Waters Xevo TQ instrument as described above using positive electrospray ionization. Assay acceptance criteria was 20% for all standards and 25% for the LLOQ. GraphPad® Prism v. 5.04 was used for nonlinear fitting of data to generate t1/2 values.

For data set [5], the system named is T47D cell line. In words: Cytotoxic assay (MTT) in monolayer model, T47D. Format: cell-based. The settings on record: Homo sapiens, 48 h, read-out: IC50 cytotoxic assay against T47D, monolayer. The method, then: 1×10^6 cells of the human breast cancer cell lines MCF7 and T47D were seeded and grown at 37° C. with 5% CO2, in a Dulbecco's Modified Eagle Medium (DMEM) with 10% fetal bovine serum (Sigma). The cells were maintained until they reached the confluence over 90%. Then, the cells were subjected to the different treatment conditions before performing the assays.
The cytotoxic effects of MAK compounds were assessed against MCF7 and T47D cell lines using MTT cell viability assay. The cells were treated for 48 hours with different concentrations of each MAK compound and the control cells were subjected to the vehicle (0.1% DMSO). Then, 10% of 5 mg/mL MTT was added to each well containing treated or control cells, and mixture was incubated at 37° C. for 3 hours. After that, the MTT-containing media was replaced with 100 μL DMSO and incubated for 10 minutes at room temperature before measuring the absorbance for each well at 570 nm. According to the measured absorbance, the IC50 was calculated for each compound. All the experiments were performed in biological and experimental replicates.

With `COc1cccc(C(=O)Nc2ccc(CC(=O)NCc3ccccc3)cc2)c1` [MAK-1, N-(4-(2-(benzylamino)-2-oxoethyl)phenyl)-3-methoxybenzamide], the 50% inhibitory concentration (IC50) in data set [1] was determined as 3.27 ± 0.15 µM. For the same compound, the unbound share (fraction unbound) at 22 h, 10 μM in data set [2] came out at 0.083. Moreover, the “loss of compound in mouse liver microsomes” value in data set [3] (lacking NADPH) is on record as “non-significant loss”. Also, the half-life in data set [3] (male, CD-1, mouse, pooled liver microsomes, in the presence of NADPH, 37° C., read-out: stability to oxidative metabolism in mouse liver microsomes (t1/2)) worked out at 35 min. Also, the “stability in mouse plasma” value in data set [4] is on record as “stable”.

With `O=C(Cc1ccc(NC(=O)c2cccc(Cl)c2)cn1)NCc1ccccc1` [MAK-6, N-(6-(2-(benzylamino)-2-oxoethyl)pyridin-3-yl)-3-chlorobenzamide], the fraction unbound at 22 h, 10 μM in data set [2] is 0.087. Besides, in data set [5], the IC50 is 1.2 nM.
